Article PMC7359024, “Synthesis, Structure–Activity Relationship, and Mechanistic Studies of Aminoquinazolinones Displaying Antimycobacterial Activity” (ACS Infectious Diseases, 2020)
Values after ≈ are worked out from the molar mass of the structure shown. Where two headings read alike, the source gives them in different places.

Tests used:
[1] = system: Mtb Erdman-Lux
[2] = system: Mtb H37Rv strain; assay: MIC90 determination in GASTE-Fe media (broth microdilution); format: cell-based, Mycobacterium tuberculosis; conditions: Mycobacterium tuberculosis, H37RV, 336 h, read-out: MIC90 GASTE-Fe
[3] = system: H37Rv Mtb strain; assay: MIC90 in different media, H37Rv strain; format: cell-based, Mycobacterium tuberculosis
[4] = system: Erdman Mtb strain; assay: MIC90 in different media, Erdman strain; format: cell-based; conditions: Mycobacterium tuberculosis
[5] = system: cytochrome-bd oxidase knockout mutant strain (Δcyd); format: cell-based
[6] = system: recA expression; format: cell-based; conditions: indicator of genotoxic compounds
[7] = in vitro; conditions: Chinese hamster
[8] = format: in vitro ADME; conditions: human liver microsomes
Description: 3.2. Microsomal stability
The metabolic stability assay was performed in duplicate in a 96-well micro titre plate. The test compounds (0.1 μM) were incubated individually in mouse, rat and pooled human liver microsomes ((final protein concentration of 0.4 mg/mL; XenoTech, Lenexa, KS ), suspended in 0.1M phosphate buffer (pH 7.4) at 37 °C for predetermined time points, in the presence and absence of the cofactor NADPH (1 mM). Reactions were quenched by adding ice cold acetonitrile containing internal standard (carbamazepine, 0.0236 µg/mL). T he samples were centrifuged and test compound in the supernatant were analysed by means of LC -MS/MS (Agilent Rapid Resolution HPLC, AB SCIEX 4500 MS ). The relative loss of parent compound over time was monitored and plots (concentration vs. time) were prepared per compound to determine the first order rate constant for compound depletion. This was in turn used to calculate half-life, in vitro intrinsic clearance and in vivo hepatic extraction ratio. Metabolite searches were not conducted during the metabolic stability assay. 5

[9] = system: iniB expression; format: cell-based; conditions: detects compounds targeting cell-wall biosynthesis
[10] = in vivo; set-up: species or system C57/BL6 mice
Description: In vivo PK studies were performed on compound 1 (sulfone) and compound 2 (sulfoxide) (Table 3). All studies and procedures were conducted with prior approval of the animal ethics committee of the University of Cape Town (approval numbers 013/028 and 014/028) in accordance with the South African National Standard (SANS 10386:008) for the Care and Use of Animals for Scientific Purposes and guidelines from the Department of Health. […]
the South African National Standard (SANS 10386:008) for the Care and Use of Animals for Scientific Purposes,6 and guidelines from the Department of Health.7
The pharmacokinetic parameters of the compounds were determined by dosing the compound to C57/BL6 mice through oral (n = 3 mice) and intravenous (n = 3 mice) administration. For oral administration, the compounds were formulated in 0.5% hydroxypropylmethyl cellulose (HPMC) in Phosphate buffered saline pH 7.4. The intravenous doses were administered in dimethylacetamide-polyethylene glycol 400-polypropylene glycol (DMA-PEG400-PPG) (10:30:60) Blood samples were collected via tail bleeding at predetermined time points and stored at -80°C until liquid chromatography-tandem mass spectrometry (LC-MS/MS) analysis.
The whole-blood concentrations of the compounds were determined using a quantitative LC- […]
method, using ice -cold acetonitrile.
After centrifugation, the supernatant was transferred to 96 -well plates for analysis. LC -MS/MS was carried out on an AB Sciex 400 0 QTrap coupled to an Agilent 1200 high -performance liquid chromatograph (HPLC). Separation was achieved on a Kinetex PFP column column, using 0.1% formic acid in water as the aqueous mobile phase and 0.1% formic acid in acetonitrile as the organic mobile phase. The analytical limit of quantitation (LOQ) was 1 ng/ml. LC-MS/MS method accuracy and precision were 15% (nom) for the standards and […]
Concentration-versus-time data were used to derive the PK parameters using noncompartmental analys is on PK Solutions 2.0 (Summit Research Services, Montrose, CO,

[11] = physchem; format: physicochemical; conditions: 25 °C, pH 7.4, aqueous buffer, kinetic solubility, pH 7.4, HPLC method
Description: The kinetic solubility assay was performed using a miniaturised shake flask method. 10 mM stock solutions of each of the test compounds were used to prepare calibration standards (10-220μM) in DMSO. The same 10mM stock solutions were accurately dispensed in duplicate into 96-well plates and the DMSO dried down (MiVac GeneVac, 90 min, 37 °C). Thereafter, the samples were reconstituted (200 µM) in phosphate buffered saline (pH 7.4) and shaken (20 hours, 25 °C). The solutions were filtered and analysed by means of HPLC -DAD (Agilent 1200 Rapid Resolution HPLC with a diode array detector). […]

[12] = Erdman, 7H12 + casitone + palmitic acid + BSA + catalase + Tween 80 (glycerol-free)
[13] = 100 mg/kg oral once per day, 12 days, three days after last dose, untreated 6.51
[14] = Mycobacterium tuberculosis, H37RV; 7H12 + casitone + palmitic acid + BSA + catalase + Tween 80 (glycerol-free); read-out: MIC90
[15] = Mycobacterium tuberculosis, H37RV; read-out: MIC90

CO[C@H]1/C=C/O[C@@]2(C)Oc3c(C)c(O)c4c(O)c(c(/C=N/N5CCN(C)CC5)c(O)c4c3C2=O)NC(=O)/C(C)=C\C=C\[C@H](C)[C@H](O)[C@@H](C)[C@@H](O)[C@@H](C)[C@H](OC(C)=O)[C@@H]1C [Rifampicin, reference compound]
mean lung burdens ([1]; mouse, in vivo): 5.72 log10 CFU | reduction of lung burdens ([1]; mouse, in vivo): 0.8 log | MIC90 [2]: 0.0039 µM (≈ 0.00321 µg/mL) | MIC90 [3]: <0.008 µg/mL | MIC ([3]; Mycobacterium tuberculosis, H37RV, read-out: MIC90): 0.016 µg/mL (≈ 0.0194 µM)

C[S+]([O-])c1cccc(-c2ccc3nc(N)n(-c4ccc(C(F)(F)F)cc4)c(=O)c3c2)c1 (stereo not shown) [compound 2, 2-Amino-6-(3-(methylsulfinyl)phenyl)-3-(4-(trifluoromethyl)phenyl)quinazolin-4(3H)-one]
MIC [4]: 1 µg/mL (≈ 2.26 µM) | MIC [4, 12]: > 16 µg/mL | Δcyd GASTE-Fe MIC90 [5]: 2.5 µM | mean lung burdens [1, 13]: 7.84 log10 CFU | mean lung burdens ([1]; 200 mg/kg oral once per day, 12 days, three days after last dose, untreated 6.51): 7.75 log10 CFU | tolerability ([1]; 100 and 200 mg/kg oral once per day, 12 consecutive days): no evidence of compound tolerability issues | efficacy in the BALB/c acute infection model ([1]; 100 and 200 mg/kg oral, 12 days): lack efficacy | signal in PrecA-LUX reporter assay [6]: did not show a positive signal | IC50 [7]: > 100 µM | Metabolic Stability H (% Rem.) [8]: 88/-/- % Rem. | signal in PiniB-LUX reporter assay [9]: did not show a positive signal | Vd ([10]; C57/BL6, in vivo, mouse, iv 5 mg/kg): 11.1 L/kg | clearance ([10]; C57/BL6, in vivo, mouse, iv 5 mg/kg, read-out: CLtotal): 21.8 mL/min/kg | half-life ([10]; C57/BL6, in vivo, mouse, iv 5 mg/kg, read-out: apparent t1/2 (converted)): 6.2 h | Tmax ([10]; C57/BL6, in vivo, mouse, oral 20 mg/kg): 0.5 h | Cmax ([10]; C57/BL6, in vivo, mouse, oral 20 mg/kg, whole blood): 3.54 µM | bioavailability ([10]; C57/BL6, mouse, in vivo, oral 20 mg/kg vs iv 5 mg/kg, read-out: bioavailability): 93% | AUC0–∞ ([10]; mouse, iv 5 mg/kg): 523 min·μmol·L^–1 | AUC0–∞ ([10]; mouse, oral 20 mg/kg): 2152 min·μmol·L^–1 | MIC90 ([2]; Mtb H37Rv, replicating conditions, GASTE-Fe media, read 14 days after incubation): 0.64 µM (≈ 0.284 µg/mL) | MIC [3, 14]: > 16 µg/mL | MIC [3, 15]: 0.5 µg/mL (≈ 1.13 µM) | solubility [11]: 80 µM (≈ 35.5 µg/mL)

CC[C@@H](CO)NCCN[C@@H](CC)CO [ethambutol, reference compound]
mean lung burdens [1, 13]: 4.15 log10 CFU | reduction of lung burdens ([1]; 100 mg/kg, relative to untreated): 2.4 log

NNC(=O)c1ccncc1 [isoniazid, reference compound]
MIC [4]: 0.016 µg/mL (≈ 0.117 µM) | MIC [4, 12]: 0.016 µg/mL | MIC [3, 14]: 0.016 µg/mL | MIC [3, 15]: 0.016 µg/mL (≈ 0.117 µM)
